In publication PMC12040169 (PLOS Biology, 2025):

Assay: in vitro
Settings: human, hela cells, % viability

SMILES	viability at 28.5 h, 10 µM [%]
c1cncc(COc2nccnc2N2CCCC2)c1 [CBK115890]	101
c1cncc(COc2cncc(N3CCCC3)n2)c1 [CBK115892]	88.4
c1cncc(COc2cc(N3CCCC3)ncn2)c1 [CBK115894]	96.9
Cc1ncsc1CCOc1cc(N2CCCC2)ncn1 [CBK115895]	85.5
c1cc(CCCOc2cc(N3CCCC3)ncn2)ccn1 [CBK115897]	84.4
Cc1cc(COc2cc(N3CCCC3)ncn2)no1 [CBK115898]	93.1
c1nc(OC2CCOC2)cc(N2CCCC2)n1 (stereo not drawn) [CBK115899]	88.4
FC(F)(F)c1ccnc(OCc2cccnc2)n1 [CBK115902]	102
O=C(NCC1CCCN1)c1ccccc1Nc1cccc(C(F)(F)F)c1 (stereo not drawn) [CBK115916C]	107
CN(C)CCN(C)C(=O)c1cc(-c2ccc(Cl)cc2)[nH]n1 [CBK115928]	94.9
COc1cc(NC(=O)Nc2ccc3ccc(Cl)nc3n2)cc(OC)c1OC [CBK115933]	82.9
CC(C)Nc1nc2ccccc2nc1Sc1cccc(C(=O)O)c1 [CBK115955T]	104
COc1ccc(C2N(CCC(=O)O)CCOC23CCN(C(=O)c2ccc4ccccc4c2)CC3)cc1 (stereo not drawn) [CBK115960]	102
O=c1[nH]c(SCc2c(Cl)cccc2Cl)nc2ccnn12 [CBK116145]	92.8
O=S(=O)(c1cccc(C(F)(F)F)c1)n1ccc2c(CN3CCC[C@@H]3CO)cccc21 [CBK116167T]	96.8
O=S(=O)(c1cccc(C(F)(F)F)c1)n1ccc2c(CN3CCCC3)cccc21 [CBK116168T]	111
Cc1[nH]c(=O)[nH]c(=O)c1C(=O)Nc1ccccc1 [CBK116181]	96.4
O=S(=O)(c1cccs1)n1ccc2c(CN3CCCC3)cccc21 [CBK116195T]	89.3
CCCN1CCN(Cc2cccc3c2ccn3S(=O)(=O)c2cccs2)CC1 [CBK116196T]	92
COc1ccc2[nH]cc(CCNC(=O)CCCN(C)C)c2c1 [CBK116202]	96.4
COc1ccc2[nH]cc(CCNC(=O)c3ccco3)c2c1 [CBK116204]	96.5
COc1ccc2[nH]cc(CCNC(=O)Cc3ccsc3)c2c1 [CBK116205]	91.3
COc1ccc2[nH]cc(CCNC(=O)C3CC(=O)c4ccccc43)c2c1 (stereo not drawn) [CBK116221]	97.3

SMILES	viability at 28.5 h, 10 µM [%]
COc1ccc2[nH]cc(CCNC(=O)COc3ccc(O)cc3)c2c1 [CBK116227]	82
COCCN1CCOC2(CCN(C(=O)c3ccc4ccccc4c3)CC2)C1c1ccccc1O (stereo not drawn) [CBK116232]	107
Cc1cc(Br)ccc1-n1sc2ccccc2c1=O [CBK116239]	87
Cc1cc(NC(=O)c2ccco2)c2ccccc2n1 [CBK116258]	106
Cc1cc(NC(=O)c2cccc(C(F)(F)F)c2)c2ccccc2n1 [CBK116263]	90
CC(=O)N[C@@H](CC(C)C)C(=O)Nc1cc(C)nc2ccccc12 [CBK116265]	94.3
Cc1cc(NC(=O)Cc2ccc(Cl)c(Cl)c2)c2ccccc2n1 [CBK116266]	99.3
Cc1cc(NC(=O)c2cccc(C#N)c2)c2ccccc2n1 [CBK116267]	101
Cc1cc(NC(=O)c2ccc3[nH]ccc3c2)c2ccccc2n1 [CBK116270]	104
Cc1cc(NC(=O)c2cscn2)c2ccccc2n1 [CBK116275]	85.6
CCOc1ccccc1NC(=O)NC1CC2CCC(C1)N2Cc1ccccc1 (stereo not drawn) [CBK116294]	86.2
NC(=O)CN1CC2(CCN(C(=O)OCc3ccccc3)CC2)c2ccccc21 [CBK116309]	94.4
CC1(OCCN2CCOCC2)SC(NC2CC3CCC2C3)=NC1=O (stereo not drawn) [CBK116313]	83.8
NC(=O)CN1CC2(CCNCC2)c2ccccc21 [CBK116314]	117
O=C1CCC(C(=O)O)(c2ccccc2)N1c1ccccc1 (stereo not drawn) [CBK116358]	94.8
Cc1ccccc1NC(=O)c1ccccc1Cl [CBK116485]	104
Cc1ccnc(-n2sc3ccccc3c2=O)n1 [CBK116499]	97.1
COC(=O)c1ccc(CSc2nnc(-n3sc4ccccc4c3=O)s2)cc1 [CBK116502]	90.6
O=C(O)c1ccccc1NS(=O)(=O)c1cccc(-n2sc3ccccc3c2=O)c1 [CBK116503]	94.7
CN(C)CC(=O)NCc1ccc(-c2nc(-c3ccc(C#N)cc3)cnc2N)cc1 [CBK116506]	92
COc1ccc(-c2nc(-c3ccc(C(=O)N4CCOCC4)cc3)cnc2N)cc1 [CBK116509]	108
O=C(c1cc(-c2ccc(Cl)cc2)[nH]n1)N1CCNCC1 [CBK116548]	99.5
